Laboratory results from patent publication US7723037B2, “Methods and kits for diagnosing or monitoring autoimmune and chronic inflammatory disease” (The Regents of the University of Michigan, priority 2004, dated 2010).

Key:
CD70 [1] = conditions: PHA-stimulated T cells, 3 days, oligonucleotide arrays, mean±SEM, 2 independent experiments
CD70 [2] = experiment: CD70 expression on CD4+ cells of PBMCs cultured with medications used to treat lupus, flow cytometry; format: cell-based, human; conditions: PBMCs with or without PHA, 24 hours, graded concentrations (1-100 μM)
CD70 promoter = experiment: Bisulfite sequencing of the CD70 (TNFSF7) promoter in CD4+ T cells; format: cell-based, human; conditions: for methylation of the 10 CG pairs between −515 and −423 of the TNFSF7 promoter: CD4+ T cells stimulated with anti-CD3 and anti-CD28, vs stimulated untreated controls (FIG. 13, 14)
Description: (§1) In other studies, T cells were isolated by negative selection using magnetic beads and instructions provided by the manufacturer (Pan T cell Isolation Kit, Miltenyi), and the CD4+ or CD8+ subset was similarly isolated by magnetic cell sorting. Jurkat cells (E6-1) were cultured as previously described (See, e.g., Cornacchia et al., J Immunol 140:2197 (1998)). Purified human CD4+ T cells were first stimulated with plate bound anti-CD3 and soluble anti-CD28. Briefly, 24 well plates were coated with 300 μl of anti-CD3 (10 μg/ml in PBS—SouthernBiotech) 18 hours 4° C., washed, then 2×10^6 purified T cells were added to the wells in 2 ml RPMI 1640/10% FCS containing 2 μg/ml anti-CD28 (SouthernBiotech).
Bisulfite sequencing. The putative CD70 promoter was identified using the published CD70 cDNA sequence and Tfsitescan software. Deoxycytosine (dC) and deoxymethylcytosine (d^mC) bases in the gene promoter and 5′ flanking sequences were identified by bisulfite treatment of purified DNA followed by nested PCR amplification of 3 sequential fragments to span the entire region. The primers were designed to avoid CG pairs and to account for the conversion of dC to dU by the bisulfite. EcoRI sites were added to the forward primers, and XbaI to the reverse, to facilitate cloning. The amplified fragments were then cloned into PBS+, and 5 clones sequenced for each fragment. The primers used were: […]
The effect of lupus and DNA methylation inhibitors on a regulatory element in the CD70 promoter was examined. DNA was isolated from the CD4+ T cells of 7 healthy individuals or 6 lupus patients, bisulfite treated, the region from −466-−515, containing 6 CG pairs was amplified by PCR, and 5 fragments sequenced from each individual. The average methylation status of the 6 CG pairs for healthy versus lupus individuals is shown (FIG. 8, NI and Lupus, respectively). CD4+ T cells from 5 individuals were also stimulated with PHA, treated with the irreversible DNA methyltransferase inhibitor 5-azacytidine (5-azaC), and the methylation status of the 6 CG pairs similarly analyzed from the 25 fragments sequenced (FIG. 8, 5-azaC). […] Results are presented as the mean±SEM of the average methylation of the 6 CG pairs, measured from the 10-35 determinations/group.
The effects of the DNA methylation inhibitors on the methylation status of this region were then compared. […] Again, 5 cloned fragments were sequenced from each control, for a total of 35 determinations per CG pair. […] FIG. 14 compares the average methylation for the 10 CG pairs (−515 to −423) in the T cells treated with DNA methylation inhibitors relative to stimulated, untreated controls.

CD70 [3] = experiment: Flow cytometric analysis of CD70 expression on drug-treated T cells; format: cell-based, human; conditions: for CD70 expression on CD4+ T cells: summary statement; for increase of CD70 MFI on CD4+ T cells: 1 μM 5-azaC (n=5), 25 μM PD98059 (n=3), 40 μM U0126 (n=4); for CD70 expression on PHA-stimulated T cells, treated vs untreated: unfractionated T cells, 3 days, 1 μM 5-azaC, procainamide dose response, 25 μM PD98059, 40 μM U0126 (FIG. 2); for CD70 expression increase on cloned T cell line TT48E: 1 μM 5-azaC or 40 μM U0126 for 3 days, 6 serial experiments
CD70 mRNA = experiment: Real time RT-PCR of CD70 transcripts relative to β-actin in T cells; format: cell-based, human; conditions: for CD70 mRNA (transcripts) in CD4+ T cells: anti-CD3 + anti-CD28, 3 days, 5 μm 5-azaC, 50 μm Pca, 20 μm Hyd, 40 μm UO126, 25 μm PD98059 (FIG. 9); for expression of CD70 mRNA relative to that of beta-actin: PHA-stimulated T cells, treated vs untreated, real time RT-PCR (FIG. 1B)
Description: Cells and cell culture. Peripheral blood mononuclear cells (PBMCs) were isolated by density-gradient centrifugation. T cells were then isolated by E-rosetting (See, e.g., Golbus et al., Clin Immunol Immunopathol 46, 129 (1988)). […] Where indicated, the cells were cultured in RPMI 1640/10% fetal calf serum (FCS) supplemented with interleukin-2 (IL-2) (See, e.g., Richardson et al., Clin Immunol Immunopathol 55, 368 (1990)), in round-bottomed 5-ml culture tubes (FALCON). Cells were stimulated with 1 μg/ml of PHA (REMEL) for 16 hours, then cultured in 24-well plates at a density of 1×10^6 for an additional 72 hours in the presence of 2-deoxy-5-azaC or 5-azaC (SIGMA ALDRICH), procainamide (SIGMA ALDRICH), hydralazine (SIGMA ALDRICH), or the MEK inhibitors U0126 (PROMEGA) or PD98059 (PROMEGA). In other studies, PHA-stimulated PBMCs were cultured in RPMI 1640/10% FCS and treated with indomethacin, chloroquine, hydrocortisone, and 6-mercaptopurine (6-MP) (all from SIGMA ALDRICH). TT48E, a cloned, CD4+, tetanus toxoid-reactive human T cell line, was cultured as previously described (Cornacchia et al., J Immunol 140, 2197 (1988); Richardson et al., Arthritis Rheum 35, 647 (1992)).
as §1

B cell IgG production = experiment: T cell and B cell costimulation assay, IgG ELISA of supernatants; format: cell-based, human; conditions: autologous B cells; for IgG produced by B cells cultured with drug-treated cloned T cells vs untreated T cells: TT48E treated 3 days, without PWM, P<0.05 (FIG. 4); for IgG secreted by B cells cultured with drug-treated T cells vs untreated T cells: unfractionated PHA-stimulated T cells, PWM, 8 days, P<0.05 (FIG. 3)
Description: T cell and B cell costimulation assays. E-rosette-purified T cells were stimulated for 16 hours with PHA and then treated with the indicated chemicals for an additional 72 hours as described above. Where indicated, T cell subsets were isolated by negative selection using magnetic beads (Miltenyi). B cells (1-4×10^5) enriched by negative selection using magnetic beads (Miltenyi) and assessed to be 70-85% pure using PE-conjugated anti-human CD21 (PHARMINGEN), were added to washed, drug-treated autologous T cells, at T cell to B cell ratios of 4:1, 2:1, 1:1, 1:2, and 1:4. Where indicated, 0.625 μg/ml of PWM (ALDRICH) was added. The cells were cultured in RPMI 1640/10% FBS/penicillin/streptomycin for 8 days in 96-well roundbottomed plates (Costar) containing a 200 μl total volume (performed in duplicate). Cells were supplemented with 50 μl of medium on day 4. Where indicated, 1 μg/ml of anti-CD70 monoclonal antibody (HNE51) (DAKO) was added to the cultures. TT48E cells were similarly stimulated with PHA (1 μg/ml) for 18 hours, treated with the indicated drugs for 3 days, then similarly cultured with autologous B cells for 8 days. Where indicated, the TT48E cells were pretreated with 1 μg/ml of anti-CD70 for 30 minutes at 4° C., then washed and added to the B cells, according to protocols described by others (See, e.g., Kobata et al., Proc Natl Acad Sci USA 92, 11249 (1995)).
IgG enzyme-linked immunosorbent assays (ELISAs). IgG was measured in the supernatants of the T cell-B cell cultures (See, e.g., Richardson et al., Clin Immunol Immunopathol 55, 368 (1990)). Briefly, 96-well flatbottomed polystyrene plates (Costar) were coated with 1 μg/ml of goat anti-human IgG (Southern Biotech) and washed. Unreacted combining sites were sealed with 3% bovine serum albumin (BSA) in phosphate buffered saline (PBS) by incubation at 4° C. for 16 hours. Pooled supernatants from duplicate wells were diluted 1:5 in PBS/1% BSA, and 50 μl was added to the wells. Serial dilutions of purified human IgG (Sigma) were used for quantitation. Following incubation and washing, goat anti-human IgG conjugated with horseradish peroxidase (Southern Biotech) was added, and cells were incubated for 2 hours at room temperature. The wells were washed 3 times with PBS/0.1% Tween 20, and color was developed using Sigma Fast tablets. The plates were read at 405 nm using a SpectraMax spectrophotometer (Molecular Devices). All determinations were performed in quadruplicate.
Since CD70 participates in T cell-dependent B cell stimulation (See e.g., Kobata et al., Proc Natl Acad Sci USA 92, 11249 (1995)), the effects of DNA methylation inhibitors on CD70-dependent B cell help were examined. […] Eight days later, total IgG in the supernatants was measured by ELISA. […]

Structure (SMILES) | CD70 expression on stimulated or unstimulated CD4+ cells (CD70 [2]) | methylation of the 10 CG pairs between −515 and −423 of the TNFSF7 promoter (CD70 promoter) | CD70 expression on CD4+ T cells (CD70 [3]) | increase of CD70 MFI on CD4+ T cells (CD70 [3]) | CD70 expression on PHA-stimulated T cells, treated vs untreated (CD70 [3]) | CD70 mRNA (transcripts) in CD4+ T cells (CD70 mRNA) | further results
Nc1ncn([C@H]2C[C@H](O)[C@@H](CO)O2)c(=O)n1 [2-deoxy-5-azaC] | – | – | – | – | – | – | CD70 expression increase in treated cells relative to untreated controls (CD70 [1]): 2.6±0.6 fold
Sc1ncnc2nc[nH]c12 [6-MP, 6-mercaptopurine] | No increase in CD70 expression | – | – | – | – | – | –
COc1cccc(-c2cc(=O)c3ccccc3o2)c1N [PD98059] | – | appears to demethylate | increased CD70 expression | 1.63±0.43 fold | increase in CD70 expression | increased steady state levels of CD70 mRNA | –
CCN(CC)CCNC(=O)c1ccc(N)cc1 [procainamide] | – | appears to demethylate | increased CD70 expression | – | increase in the ratio of the mean fluorescence intensity (MFI) of CD70 expression | increased steady state levels of CD70 mRNA | methylation of the region from −466-−515 (6 CG pairs) of the CD70 promoter (CD70 promoter; PHA-stimulated CD4+ T cells (FIG. 8)): demethylate this region
N#CC(=C(/N)Sc1ccccc1N)/C(C#N)=C(\N)Sc1ccccc1N [U0126] | – | appears to demethylate | increased CD70 expression | 3.20±0.44 fold | increase in CD70 expression | increased steady state levels of CD70 mRNA | CD70 MFI increase in T cells treated with U0126 (FIG. 2I) (CD70 [3]; T cells treated with 40 μM U0126, P=0.085): 2.83±0.95 fold; CD70 expression increase on cloned T cell line TT48E (CD70 [3]): 1.87±0.37 fold; expression of CD70 mRNA relative to that of beta-actin (CD70 mRNA): increased the expression of CD70 mRNA; IgG produced by B cells cultured with drug-treated cloned T cells vs untreated T cells (B cell IgG production): greater amounts of IgG; IgG secreted by B cells cultured with drug-treated T cells vs untreated T cells (B cell IgG production): greater amounts of IgG
CCN(CC)CCCC(C)Nc1ccnc2cc(Cl)ccc12 (stereo not drawn) [chloroquine] | No increase in CD70 expression | – | – | – | – | – | –
COc1ccc2c(c1)c(CC(=O)O)c(C)n2C(=O)c1ccc(Cl)cc1 [indomethacin] | No increase in CD70 expression | – | – | – | – | – | –
C[C@]12CCC(=O)C=C1CC[C@@H]1[C@@H]2[C@@H](O)C[C@@]2(C)[C@H]1CC[C@]2(O)C(=O)CO [hydrocortisone] | No increase in CD70 expression | – | – | – | – | – | –
Nc1ncn([C@@H]2O[C@H](CO)[C@@H](O)[C@H]2O)c(=O)n1 [5-azaC, 5-azacytidine] | – | hypomethylated compared to controls | increased CD70 expression | 1.53±0.45 fold | small increase | increased steady state levels of CD70 mRNA | CD70 expression increase in treated cells relative to untreated controls (CD70 [1]): > 2 fold; CD70 expression increase on cloned T cell line TT48E (CD70 [3]): 1.69±0.33 fold; concentration producing the greatest effect on CD70 expression (CD70 [3]; range of 5-azaC concentrations, PHA-stimulated T cells, n=5 experiments (FIG. 2B)): 1 µM; expression of CD70 mRNA relative to that of beta-actin (CD70 mRNA): increased the expression of CD70 mRNA; IgG produced by B cells cultured with drug-treated cloned T cells vs untreated T cells (B cell IgG production): greater amounts of IgG; IgG secreted by B cells cultured with drug-treated T cells vs untreated T cells (B cell IgG production): greater amounts of IgG
